Source: ChEMBL document CHEMBL1124116 (J Med Chem, 1988)

Molecular target: T1, Cholesterol side-chain cleavage enzyme, mitochondrial (Bos taurus, UniProt P00189)
T1 sequence (P00189 whole entry): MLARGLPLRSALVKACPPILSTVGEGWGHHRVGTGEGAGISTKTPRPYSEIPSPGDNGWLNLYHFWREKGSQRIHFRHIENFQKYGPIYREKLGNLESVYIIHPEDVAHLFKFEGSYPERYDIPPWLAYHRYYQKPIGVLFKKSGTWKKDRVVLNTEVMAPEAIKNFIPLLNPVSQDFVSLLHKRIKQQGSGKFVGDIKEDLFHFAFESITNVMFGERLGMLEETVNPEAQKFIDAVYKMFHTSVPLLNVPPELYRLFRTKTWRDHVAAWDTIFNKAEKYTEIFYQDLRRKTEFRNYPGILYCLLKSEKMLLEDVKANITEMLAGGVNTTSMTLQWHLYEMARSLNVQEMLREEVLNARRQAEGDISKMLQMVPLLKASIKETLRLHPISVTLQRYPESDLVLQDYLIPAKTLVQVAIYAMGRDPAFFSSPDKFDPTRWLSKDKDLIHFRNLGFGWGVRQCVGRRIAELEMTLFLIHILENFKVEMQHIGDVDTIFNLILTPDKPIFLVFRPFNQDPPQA
Settings: read-out: I50

`CC(C)(C)CN1C(=O)C2CC2(c2ccc(N)cc2)C1=O` (stereo not drawn) and `CCN1C(=O)C2CC2(c2ccc(N)cc2)C1=O` (stereo not drawn) are within 1.5-fold of each other in IC50: 294 µM for the first, 305 µM for the second.

`Nc1ccc(C23CC2C(=O)N(Cc2ccccc2)C3=O)cc1` (stereo not drawn) and `C=CCN1C(=O)C2CC2(c2ccc(N)cc2)C1=O` (stereo not drawn) are within 1.5-fold of each other in IC50: 290 µM for the first, 274 µM for the second.

`CN1C(=O)C2CC2(c2ccc(N)cc2)C1=O` (stereo not drawn) and `CC(C)N1C(=O)C2CC2(c2ccc(N)cc2)C1=O` (stereo not drawn) are within 1.5-fold of each other in IC50: 460 µM for the first, 320 µM for the second.

`CC(C)CN1C(=O)C2CC2(c2ccc(N)cc2)C1=O` (stereo not drawn) and `C#CCN1C(=O)C2CC2(c2ccc(N)cc2)C1=O` (stereo not drawn) are within 1.5-fold of each other in IC50: 310 µM for the first, 292 µM for the second.
